Measured values: patent US8575091B1, “Amylin analogues and pharmaceutical compositions thereof” (Novo Nordisk A/S, priority 2012, dated 2013)
Numbered stars: 1 amine (or outer) side, 2 acyl side, 3 side chain; on linkers, the order of the positions; unused ones are H or OH. Bridge positions count the residues as written; N and C are the ends. Side chains are listed from the residue outwards. Peptide text beside a SMILES is read from it. * marks the point of attachment. C20 diacid = O=C(O)CCCCCCCCCCCCCCCCCCC(=O)*; γGlu = O=C(O)[C@H](CCC(=O)[*:2])N[*:1]; AEEA = NCCOCCOCC(=O)O

Key:
[1] = molecular target: T1, rat amylin receptor (Rattus norvegicus, UniProt P32214+Q9JJ73); assay: Assay (VI) binding to the rat amylin receptor; settings: rCTR bind IC50 divided by rAmylin-R bind IC50
T1 construct: expressed in transfected cells; host or cells: BHK tk'ts 13 (transient, FuGENE 6), membranes
T1 sequence (P32214 25-479 isoform P32214-2 limits assumed): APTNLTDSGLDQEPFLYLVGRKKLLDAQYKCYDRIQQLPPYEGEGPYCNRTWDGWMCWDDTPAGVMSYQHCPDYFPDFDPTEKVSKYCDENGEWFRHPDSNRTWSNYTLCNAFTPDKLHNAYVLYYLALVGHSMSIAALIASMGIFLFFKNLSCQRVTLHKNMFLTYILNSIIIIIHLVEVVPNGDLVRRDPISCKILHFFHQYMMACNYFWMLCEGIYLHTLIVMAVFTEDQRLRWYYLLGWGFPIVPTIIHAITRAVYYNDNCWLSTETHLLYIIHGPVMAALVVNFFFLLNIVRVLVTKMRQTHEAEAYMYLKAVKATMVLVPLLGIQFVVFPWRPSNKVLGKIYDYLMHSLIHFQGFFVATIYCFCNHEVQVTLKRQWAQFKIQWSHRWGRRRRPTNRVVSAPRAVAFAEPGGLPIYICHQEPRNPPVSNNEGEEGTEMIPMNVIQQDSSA
T1 sequence (Q9JJ73 23-147 partner): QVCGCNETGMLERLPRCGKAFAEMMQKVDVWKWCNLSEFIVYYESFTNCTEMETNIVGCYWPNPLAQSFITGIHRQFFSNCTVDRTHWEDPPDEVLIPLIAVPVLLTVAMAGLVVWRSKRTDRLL
Protocol: Assay (VI)—Determination of the Binding to the Rat Amylin Receptor
The assay was performed as described above (Assay (V)—Determination of binding to the human amylin receptor) with the exception that we used membranes prepared from BHK tk'ts 13 cells that were transiently transfected with the rat calcitonin receptor rat RAMP 3 at an equimolar ratio […]. The BHK tk'ts 13 cells were transiently transfected with rat calcitonin receptor using FuGENE® 6 (Roche), according to the manufacturer's recommendations. Cells were grown in DMEM with 10% FBS and 1% Pen/Strep. Approximately 48 hours after transfection, the cells were harvested and membranes were prepared.

[2] = molecular target: T2, human amylin receptor (amylin 3(a) receptor: human calcitonin receptor + RAMP-3) (Homo sapiens, UniProt O60896+P30988); assay: Assay (II)a functional assay, human amylin receptor (CRE luciferase, BHK cells); type: cell-based
T2 construct: expressed in transfected cells
T2 sequence (P30988 25-474): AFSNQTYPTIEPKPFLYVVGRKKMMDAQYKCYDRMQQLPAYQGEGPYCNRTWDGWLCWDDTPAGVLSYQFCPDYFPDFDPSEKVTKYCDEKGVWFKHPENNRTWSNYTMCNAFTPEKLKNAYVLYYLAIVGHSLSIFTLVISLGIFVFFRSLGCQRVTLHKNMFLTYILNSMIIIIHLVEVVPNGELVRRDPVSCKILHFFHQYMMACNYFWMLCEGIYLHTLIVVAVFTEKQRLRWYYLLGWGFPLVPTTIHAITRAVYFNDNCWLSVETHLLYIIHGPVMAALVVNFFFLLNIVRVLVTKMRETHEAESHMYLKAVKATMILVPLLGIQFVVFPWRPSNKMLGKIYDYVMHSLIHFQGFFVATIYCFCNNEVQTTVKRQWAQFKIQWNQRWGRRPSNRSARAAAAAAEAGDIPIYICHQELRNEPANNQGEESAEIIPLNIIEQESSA
T2 sequence (O60896 24-148 partner): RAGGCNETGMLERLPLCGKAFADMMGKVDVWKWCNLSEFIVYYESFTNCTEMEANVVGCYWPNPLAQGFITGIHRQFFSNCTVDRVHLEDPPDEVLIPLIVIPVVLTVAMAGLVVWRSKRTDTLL

[3] = molecular target: T3, human calcitonin receptor (Homo sapiens, UniProt P30988); assay: Assay (VII) binding to the human calcitonin receptor (SPA, 125I-Calcitonin); settings: read-out: hCTR bind IC50;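 also: cell membranes coupled to SPA beads, competitive displacement read by scintillation counting, IC50 derived from a one-site competition fit as a measure of receptor affinity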
T3 construct: expressed in transfected cells
T3 sequence (P30988 25-474): T2 sequence (P30988 25-474)
Protocol: Membranes were prepared in the following way; the cells were rinsed with PBS and incubated with Versene for approximately 5 min before harvesting. The cells were flushed with PBS and the cell-suspension was centrifuged for 5 min at 1000 rpm. […] The resulting pellet was resuspended in buffer 2 and protein concentration was measured (BCA protein Assay, Pierce). The homogenate was kept cold during the whole procedure. The membranes were kept at −80° C. until use. Assay was performed in a 384 well Optiplate (PerkinElmer) in a total volume of 40 ul. Membranes were mixed with SPA beads. Final concentration of membranes 35 ng/μL final and Final concentration of SPA beads was 0.05 mg/well. Test-compounds were dissolved in DMSO and further diluted in assay buffer (50 mM Hepes, pH 7.4, 1 mM CaCl2, 5 mM MgCl2, 0.1% OA and 0.02% Tween20). […] Samples were analyzed on TopCounter™ (Packard). The IC50 was calculated using (one site binding competition analysis) GraphPad Prism5 as a measure of receptor affinity.

[4] = molecular target: T3, human calcitonin receptor; assay: Assay (II)a functional assay, human calcitonin receptor (CRE luciferase, BHK cells);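 also: luminescence from a CRE-driven luciferase reporter, read by single photon counting after cells were exposed to test samples for 3 h at 37 °C under 5% CO2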; type: cell-based; settings: read-out: hCTR funct. EC50
[5] = molecular target: T4, human amylin receptor (Homo sapiens, UniProt O60896+P30988); assay: Assay (V) binding to the human amylin receptor (SPA, 125I-rat amylin); settings: human amylin receptor membranes, SPA; read-out: hAmylin-R bind IC50
T4 construct: expressed in transfected cells
T4 sequence (P30988 25-474): T2 sequence (P30988 25-474)
T4 sequence (O60896 24-148 partner): T2 sequence (O60896 24-148 partner)
Outline: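 SPA competition binding on membranes from Amylin 3(a)/CRE-luc cells, 35 ng/μL membranes with 0.05 mg/well beads. Buffer 50 mM Hepes pH 7.4, 1 mM CaCl2, 5 mM MgCl2, 0.1% OA, 0.02% Tween20. IC50 from one-site competition fit as affinity measure.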

Row | Compound | Ratio rCT/rAmylin binding ([1]; Table 7b) | Ratio rCT/rAmylin binding [1] | Ratio hCT/hAmylin funct. ([2]; Table 6, human functional selectivity (hCTR EC50 / hAmylin-R EC50)) | Ratio hCT/hAmylin funct. ([2]; Table 6i, hCTR funct. EC50 / hAmylin-R funct. EC50) | Ratio rCT/rAmylin binding ([1]; Table 7c) | IC50 [3] | EC50 ([2]; functional assay, human amylin receptor, read-out: hAmylin-R funct. EC50) | EC50 [4] | IC50 [5]
1 | CC(C)C[C@H](NC(=O)[C@H](CCCNC(=N)N)NC(=O)[C@H](CCC(N)=O)NC(=O)[C@@H](NC(=O)[C@H](C)NC(=O)[C@@H]1CSSC[C@H](NC(=O)[C@H](CCCCN)NC(=O)CC[C@H](NC(=O)CCCCCCCCCCCCCCCCCCC(=O)O)C(=O)O)C(=O)N[C@@H](CC(N)=O)C(=O)N[C@@H]([C@@H](C)O)C(=O)N[C@@H](C)C(=O)N[C@@H]([C@@H](C)O)C(=O)N1)[C@@H](C)O)C(=O)N[C@@H](C)C(=O)N[C@@H](CCC(=O)O)C(=O)N[C@@H](Cc1ccccc1)C(=O)N[C@@H](CC(C)C)C(=O)N[C@@H](CCCNC(=N)N)C(=O)N[C@@H](Cc1c[nH]cn1)C(=O)N[C@@H](CO)C(=O)N[C@@H](CO)C(=O)N1CCC[C@H]1C(=O)N[C@@H](CC(N)=O)C(=O)N[C@@H](Cc1ccccc1)C(=O)NCC(=O)N[C@@H](C)C(=O)N1CCC[C@H]1C(=O)N[C@@H](CC(C)C)C(=O)N[C@@H](CO)C(=O)N[C@@H](CO)C(=O)N[C@H](C(=O)N[C@@H](CC(N)=O)C(=O)N[C@H](C(=O)NCC(=O)N[C@@H](CO)C(=O)N[C@@H](CC(N)=O)C(=O)N[C@H](C(=O)N[C@@H](Cc1ccc(O)cc1)C(N)=O)[C@@H](C)O)C(C)C)[C@@H](C)O [Example 7] ({C20 diacid-γGlu}-KCNTATCATQRLAEFLRHSSPNFGAPLSSTNVGSNTY-NH2; disulfide 2-7) | 42.0 | 42.0 | 4.5 | 4.5 |  |  |  |  | 
2 | CC[C@H](C)[C@H](NC(=O)[C@H](C)NC(=O)CNC(=O)[C@H](Cc1ccccc1)NC(=O)[C@H](CC(N)=O)NC(=O)[C@@H]1CCCN1C(=O)[C@H](CO)NC(=O)[C@H](CO)NC(=O)[C@H](Cc1c[nH]cn1)NC(=O)[C@H](CCCNC(=N)N)NC(=O)[C@H](CC(C)C)NC(=O)[C@H](Cc1ccccc1)NC(=O)[C@H](CC(N)=O)NC(=O)[C@H](C)NC(=O)[C@H](CC(C)C)NC(=O)[C@H](CCCNC(=N)N)NC(=O)[C@H](CCC(N)=O)NC(=O)[C@@H](NC(=O)[C@H](C)NC(=O)[C@@H]1CSSC[C@H](NC(=O)[C@@H](N)CCCCNC(=O)COCCOCCNC(=O)CC[C@H](NC(=O)CCCCCCCCCCCCCCCCCCC(=O)O)C(=O)O)C(=O)N[C@@H](CC(N)=O)C(=O)N[C@@H]([C@@H](C)O)C(=O)N[C@@H](C)C(=O)N[C@@H]([C@@H](C)O)C(=O)N1)[C@@H](C)O)C(=O)N1CCC[C@H]1C(=O)N[C@@H](CO)C(=O)N[C@@H](CO)C(=O)N[C@H](C(=O)N[C@@H](CC(N)=O)C(=O)N[C@H](C(=O)NCC(=O)N[C@@H](CO)C(=O)N[C@@H](CC(N)=O)C(=O)N[C@H](C(=O)N[C@@H](Cc1ccc(O)cc1)C(N)=O)[C@@H](C)O)C(C)C)[C@@H](C)O [Example 41] | 54.0 | 54.0 |  |  | 54.0 |  |  |  | 
3 | CC[C@H](C)[C@H](NC(=O)[C@H](C)NC(=O)CNC(=O)[C@H](Cc1ccccc1)NC(=O)[C@H](CC(N)=O)NC(=O)[C@@H]1CCCN1C(=O)[C@H](CO)NC(=O)[C@H](CO)NC(=O)[C@H](Cc1c[nH]cn1)NC(=O)[C@H](CCCNC(=N)N)NC(=O)[C@H](CC(C)C)NC(=O)[C@H](Cc1ccccc1)NC(=O)[C@H](CCCNC(=N)N)NC(=O)[C@H](C)NC(=O)[C@H](CC(C)C)NC(=O)[C@H](CCCNC(=N)N)NC(=O)[C@H](CCC(N)=O)NC(=O)[C@@H](NC(=O)[C@H](C)NC(=O)[C@@H]1CSSC[C@H](NC(=O)[C@@H](N)CCCCNC(=O)COCCOCCNC(=O)CC[C@H](NC(=O)CCCCCCCCCCCCCCCCCCC(=O)O)C(=O)O)C(=O)N[C@@H](CC(N)=O)C(=O)N[C@@H]([C@@H](C)O)C(=O)N[C@@H](C)C(=O)N[C@@H]([C@@H](C)O)C(=O)N1)[C@@H](C)O)C(=O)N1CCC[C@H]1C(=O)N[C@@H](CO)C(=O)N[C@@H](CO)C(=O)N[C@H](C(=O)N[C@@H](CC(N)=O)C(=O)N[C@H](C(=O)NCC(=O)N[C@@H](CO)C(=O)N[C@@H](CC(N)=O)C(=O)N[C@H](C(=O)N[C@@H](Cc1ccc(O)cc1)C(N)=O)[C@@H](C)O)C(C)C)[C@@H](C)O [Example 82] (H-K([AEEA-γGlu-C20 diacid])CNTATCATQRLARFLRHSSPNFGAIPSSTNVGSNTY-NH2; disulfide 2-7 (inferred); N-terminus and C-terminus assumed) | 87.0 | 87.0 |  |  | 87.0 |  |  |  | 
4 | CC[C@H](C)[C@H](NC(=O)[C@H](C)NC(=O)CNC(=O)[C@H](Cc1ccccc1)NC(=O)[C@H](CC(N)=O)NC(=O)[C@@H]1CCCN1C(=O)[C@H](CO)NC(=O)[C@H](CO)NC(=O)[C@H](Cc1c[nH]cn1)NC(=O)[C@H](CCCNC(=N)N)NC(=O)[C@H](CC(C)C)NC(=O)[C@H](Cc1ccccc1)NC(=O)[C@@H](CC(=O)O)NC(=O)[C@H](C)NC(=O)[C@H](CC(C)C)NC(=O)[C@H](CCCNC(=N)N)NC(=O)[C@H](CCC(N)=O)NC(=O)[C@@H](NC(=O)[C@H](C)NC(=O)[C@@H]1CSSC[C@H](NC(=O)[C@@H](N)CCCCNC(=O)CC[C@H](NC(=O)CC[C@H](NC(=O)CCCCCCCCCCCCCCCCCCC(=O)O)C(=O)O)C(=O)O)C(=O)N[C@@H](CC(N)=O)C(=O)N[C@@H]([C@@H](C)O)C(=O)N[C@@H](C)C(=O)N[C@@H]([C@@H](C)O)C(=O)N1)[C@@H](C)O)C(=O)N1CCC[C@H]1C(=O)N[C@@H](CO)C(=O)N[C@@H](CO)C(=O)N[C@H](C(=O)N[C@@H](CC(N)=O)C(=O)N[C@H](C(=O)NCC(=O)N[C@@H](CO)C(=O)N[C@@H](CCCNC(=N)N)C(=O)N[C@H](C(=O)N[C@@H](Cc1ccc(O)cc1)C(N)=O)[C@@H](C)O)C(C)C)[C@@H](C)O [Example 131] |  |  |  |  |  | 112 nM | 0.383 nM | 100 nM | 0.365 nM
